ChEMBL document CHEMBL1921753, “Semisynthesis and biological evaluation of ganodermanontriol and its stereoisomeric triols” (J Nat Prod, 2011)
pIC50: −log10 of the molar value.

Tests used:
Format in all cases: functional, cell-based
[1] = system: MCF7; experiment: Antiproliferative activity against human MCF7 cells after 24 to 72 hrs by MTT assay
[2] = system: MDA-MB-231; experiment: Antiproliferative activity against human MDA-MB-231 cells after 24 to 72 hrs by MTT assay
[3] = system: MCF7; experiment: Antiproliferative activity against human MCF7 cells after 72 hrs by MTT assay; settings: MCF7, 72 h
[4] = system: MDA-MB-231; experiment: Antiproliferative activity against human MDA-MB-231 cells after 72 hrs by MTT assay; settings: MDA-MB-231, 72 h

SMILES	pIC50 [1]	pIC50 [2]	pIC50 [3]	pIC50 [4]
C[C@H](CC[C@@H](O)[C@@](C)(O)CO)[C@H]1CC[C@@]2(C)C3=CC[C@H]4C(C)(C)C(=O)CC[C@]4(C)C3=CC[C@]12C	4.62	4.47	–	–
C[C@H](CC[C@H](O)[C@](C)(O)CO)[C@H]1CC[C@@]2(C)C3=CC[C@H]4C(C)(C)C(=O)CC[C@]4(C)C3=CC[C@]12C [GANODERMANONTRIOL]	–	–	5.24	5.01
C[C@H](CC[C@@H](O)[C@](C)(O)CO)[C@H]1CC[C@@]2(C)C3=CC[C@H]4C(C)(C)C(=O)CC[C@]4(C)C3=CC[C@]12C	4.62	4.95	–	–
C[C@H](CC[C@H](O)[C@@](C)(O)CO)[C@H]1CC[C@@]2(C)C3=CC[C@H]4C(C)(C)C(=O)CC[C@]4(C)C3=CC[C@]12C	4.79	4.44	–	–
